Calls of active or inactive are those of the source.
Tests used:
Cytochrome P450 2D6 = Cytochrome P450 2D6 (Homo sapiens, UniProt P10635);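 further: CYP2D6 member of a cytochrome P450 panel assay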
Escherichia coli [1] = test: microbe, parasite or virus in culture
[2] = NIH-3T3 fibroblast cytotoxicity, dose response, cytotoxicity control, cell-based, fluorescence, Alamar Blue, secondary assay (AID 2327); assay type: functional;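 further: NIH-3T3 mouse fibroblasts cultured with fluconazole at 8 µg/mL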
[3] = test system: Streptococcus sp. 'group A'; test: growth inhibition of control SK(-) GAS strain, dose response, counter-screen for streptokinase expression inhibitor project, luminescence, kanamycin, BacTiterGlo, confirmation (AID 1900); assay type: functional, organism-based
[4] = C. albicans growth with fluconazole, confirmation, fluorescence, retest (AID 2467); assay type: functional, cell-based
[5] = target: T1, Serine/threonine-protein phosphatase (Candida dubliniensis (strain CD36 / CBS 7987 / NCPF 3949 / NRRLY-17841) (Yeast), UniProt B9W6M3); test: calcineurin pathway inhibitors in yeast reporter, dose response, S. cerevisiae, CDRE-lacZ, luminescence, secondary (AID 2388); assay type: functional, cell-based;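 further: yeast reporter cells carrying a calcineurin-responsive lacZ construct stimulated with calcium chloride; luminescent beta-galactosidase reporter signal in whole cells rather than isolated phosphatase activity; potency for inhibition where a drop in reporter signal means calcineurin blockade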
T1 sequence (B9W6M3 whole entry): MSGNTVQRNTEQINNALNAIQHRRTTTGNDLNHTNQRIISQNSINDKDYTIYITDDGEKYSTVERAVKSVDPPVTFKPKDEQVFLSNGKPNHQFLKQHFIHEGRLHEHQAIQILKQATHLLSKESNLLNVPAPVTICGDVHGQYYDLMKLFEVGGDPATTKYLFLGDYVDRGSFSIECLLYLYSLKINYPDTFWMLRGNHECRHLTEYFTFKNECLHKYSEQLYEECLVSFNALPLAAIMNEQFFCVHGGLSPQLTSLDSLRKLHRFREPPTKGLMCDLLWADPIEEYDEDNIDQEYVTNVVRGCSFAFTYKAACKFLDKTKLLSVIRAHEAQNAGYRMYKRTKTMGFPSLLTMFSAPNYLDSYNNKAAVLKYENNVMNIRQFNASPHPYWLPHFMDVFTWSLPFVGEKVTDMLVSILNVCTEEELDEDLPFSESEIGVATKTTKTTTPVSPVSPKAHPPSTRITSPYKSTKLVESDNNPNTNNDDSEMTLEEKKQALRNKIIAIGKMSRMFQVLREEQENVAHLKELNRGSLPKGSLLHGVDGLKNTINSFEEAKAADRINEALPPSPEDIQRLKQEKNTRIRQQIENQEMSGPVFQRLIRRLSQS

Streptococcus = test: Group A Streptococcus viability loss, dose response, counter-screen for streptokinase expression inhibitor project, luminescence, BacTiterGlo (AID 1915); assay type: functional, organism-based;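 further: potency for reduction of bacterial viability or growth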
[6] = target: Heat shock protein HSP 90-alpha (Homo sapiens, UniProt P07900); assay type: functional, organism-based
[7] = target: ATP-dependent molecular chaperone HSP82 (Candida albicans (strain WO-1) (Yeast), UniProt C4YTQ8); test: loss of DOC-induced GRE-beta-galactosidase reporter signal, dose response, Hsp90 inhibitor project, S. cerevisiae, luminescence (AID 2400); assay type: functional, cell-based;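 further: beta-galactosidase luminescence from glucocorticoid response element reporter as proxy for Hsp90 function; inhibitor potency where signal loss means Hsp90 inhibition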
Cysteine protease ATG4B = target: T2, Cysteine protease ATG4B (Homo sapiens, UniProt Q9Y4P1); assay type: functional;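 further: Fluorescence-based dose-response confirmation assay measuring inhibition of ATG4B activity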
T2 sequence (Q9Y4P1 whole entry): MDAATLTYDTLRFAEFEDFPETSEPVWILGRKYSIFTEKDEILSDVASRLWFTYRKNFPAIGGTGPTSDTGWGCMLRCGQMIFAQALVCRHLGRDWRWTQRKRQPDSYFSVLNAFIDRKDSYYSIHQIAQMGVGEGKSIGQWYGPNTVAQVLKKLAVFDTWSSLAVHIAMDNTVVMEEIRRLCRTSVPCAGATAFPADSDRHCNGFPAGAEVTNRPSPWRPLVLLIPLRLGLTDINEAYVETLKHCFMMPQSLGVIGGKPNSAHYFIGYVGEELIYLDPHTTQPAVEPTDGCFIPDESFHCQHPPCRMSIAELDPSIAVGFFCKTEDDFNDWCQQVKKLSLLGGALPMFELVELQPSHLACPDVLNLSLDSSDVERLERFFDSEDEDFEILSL

Phospholipase A2 = Phospholipase A2 (Homo sapiens, UniProt P04054); assay type: functional;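 further: confirmatory dose-response counterscreen on phospholipase A2, testing hits that came from an ultra-high-throughput screen for ATG4B inhibitors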
Protein Tat = target: T3, Protein Tat (Human immunodeficiency virus type 1 group M subtype B (isolate HXB2)(HIV-1), UniProt P04608); assay type: functional;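 further: tat binding to TAR RNA read out by fluorescence polarization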
T3 sequence (P04608 whole entry): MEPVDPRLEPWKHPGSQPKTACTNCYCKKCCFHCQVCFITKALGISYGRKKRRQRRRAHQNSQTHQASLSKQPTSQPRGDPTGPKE

Escherichia coli [8] = test: microbe, parasite or virus in culture; remark: listed apart in the source
[9] = target: T4, RNA-binding protein pos-1 (Caenorhabditis elegans, UniProt G5EF15); test: inhibitors of POS-1/mex-3 RNA binding, dose response, biochemical, fluorescence polarization (AID 1964);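 further: purified POS-1 fused to maltose binding protein made in E. coli; potency of compounds blocking POS-1 binding to fluorescent RNA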
T4 sequence (G5EF15 whole entry): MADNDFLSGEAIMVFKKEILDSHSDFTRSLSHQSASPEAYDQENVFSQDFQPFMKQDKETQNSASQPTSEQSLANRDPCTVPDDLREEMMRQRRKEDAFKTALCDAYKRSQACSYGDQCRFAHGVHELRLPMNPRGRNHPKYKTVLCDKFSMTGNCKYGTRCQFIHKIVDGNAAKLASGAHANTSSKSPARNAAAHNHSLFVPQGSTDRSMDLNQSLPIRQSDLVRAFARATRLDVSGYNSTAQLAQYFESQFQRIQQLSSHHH

[10] = target: T5, Zinc finger protein mex-5 (Caenorhabditis elegans, UniProt Q9XUB2); test: MEX-5/TCR-2 RNA interaction inhibitors, dose response, biochemical, C. elegans, fluorescence polarization (AID 1960)
T5 sequence (Q9XUB2 whole entry): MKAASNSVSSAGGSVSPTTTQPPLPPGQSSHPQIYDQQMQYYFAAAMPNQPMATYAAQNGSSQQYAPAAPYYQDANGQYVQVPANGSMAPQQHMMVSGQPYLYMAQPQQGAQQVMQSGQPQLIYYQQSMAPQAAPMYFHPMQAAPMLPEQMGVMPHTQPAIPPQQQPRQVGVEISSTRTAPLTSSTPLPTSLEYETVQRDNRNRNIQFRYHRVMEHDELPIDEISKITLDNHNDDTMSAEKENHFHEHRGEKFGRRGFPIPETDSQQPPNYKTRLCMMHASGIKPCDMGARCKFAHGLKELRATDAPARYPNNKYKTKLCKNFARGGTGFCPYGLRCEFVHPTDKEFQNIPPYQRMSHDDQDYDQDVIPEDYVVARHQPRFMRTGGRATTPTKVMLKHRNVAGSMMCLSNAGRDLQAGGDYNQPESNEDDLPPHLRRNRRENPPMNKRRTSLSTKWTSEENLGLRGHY

Streptokinase A = target: T6, Streptokinase A (Streptococcus pyogenes serotype M1, UniProt P10520); test: S. pyogenes streptokinase expression inhibitors, potency, dose response, plasminogen activation absorbance, OD405 (AID 1914); assay type: functional, Streptococcus pyogenes M1 GAS;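 further: secreted streptokinase activity via plasminogen activation per viability signal from cell pellet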
T6 sequence (P10520 whole entry): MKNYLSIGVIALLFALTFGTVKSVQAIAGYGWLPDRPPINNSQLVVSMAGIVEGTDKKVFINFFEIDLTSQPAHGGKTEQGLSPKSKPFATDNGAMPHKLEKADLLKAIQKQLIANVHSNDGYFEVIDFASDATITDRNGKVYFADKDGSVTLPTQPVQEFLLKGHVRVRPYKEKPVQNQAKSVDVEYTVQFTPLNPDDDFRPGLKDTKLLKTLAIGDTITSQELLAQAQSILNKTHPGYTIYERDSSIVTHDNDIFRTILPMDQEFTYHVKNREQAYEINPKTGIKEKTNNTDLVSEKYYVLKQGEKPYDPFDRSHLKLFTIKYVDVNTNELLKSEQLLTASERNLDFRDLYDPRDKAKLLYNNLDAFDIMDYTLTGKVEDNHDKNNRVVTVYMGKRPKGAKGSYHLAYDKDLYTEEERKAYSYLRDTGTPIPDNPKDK

[11] = target: Neurotensin receptor type 1 (Homo sapiens, UniProt P30989); assay type: functional;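 further: Image-based confirmatory dose-response assay measuring agonist activity at NTR1; NTR1-expressing U2OS osteosarcoma cells imaged for beta-arrestin GFP spot formation; agonist potency where compounds increase beta-arrestin recruitment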
[12] = target: E3 ubiquitin-protein ligase XIAP (Homo sapiens, UniProt P98170); test: Counter Screen using XIAP-Bir3 for Chemical Antagonists of Bir1/2 domains of IAP-family anti-apoptotic proteins. [Related pubchem assays (depositor defined):AID1018, AID1449, AID1514, AID1638, AID1749, AID1750, AID488957, AID488963]
Sequence of E3 ubiquitin-protein ligase XIAP (P98170 whole entry): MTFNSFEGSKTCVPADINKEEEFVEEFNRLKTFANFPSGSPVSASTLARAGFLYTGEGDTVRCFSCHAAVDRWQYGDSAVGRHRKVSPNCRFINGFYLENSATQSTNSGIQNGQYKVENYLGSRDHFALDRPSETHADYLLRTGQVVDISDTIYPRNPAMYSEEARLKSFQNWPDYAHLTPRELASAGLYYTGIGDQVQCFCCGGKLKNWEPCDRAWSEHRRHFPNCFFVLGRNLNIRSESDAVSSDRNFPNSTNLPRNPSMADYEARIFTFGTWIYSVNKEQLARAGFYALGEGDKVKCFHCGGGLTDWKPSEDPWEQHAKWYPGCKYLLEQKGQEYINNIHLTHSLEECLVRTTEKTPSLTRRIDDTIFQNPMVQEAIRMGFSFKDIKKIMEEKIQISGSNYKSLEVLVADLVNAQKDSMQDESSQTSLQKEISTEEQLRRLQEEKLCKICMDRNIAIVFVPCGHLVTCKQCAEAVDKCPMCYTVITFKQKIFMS

Sequence of Neurotensin receptor type 1 (P30989 whole entry): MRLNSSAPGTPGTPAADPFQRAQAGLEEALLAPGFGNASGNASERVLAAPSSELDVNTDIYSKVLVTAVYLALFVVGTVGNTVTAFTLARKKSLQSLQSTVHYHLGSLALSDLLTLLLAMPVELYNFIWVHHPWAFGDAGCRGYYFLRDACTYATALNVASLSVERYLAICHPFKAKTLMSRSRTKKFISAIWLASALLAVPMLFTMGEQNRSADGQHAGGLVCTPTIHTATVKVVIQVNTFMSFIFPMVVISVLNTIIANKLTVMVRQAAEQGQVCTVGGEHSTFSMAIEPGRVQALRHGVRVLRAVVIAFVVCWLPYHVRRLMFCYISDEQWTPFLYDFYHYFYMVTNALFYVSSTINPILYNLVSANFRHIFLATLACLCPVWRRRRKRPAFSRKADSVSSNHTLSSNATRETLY
Sequence of ATP-dependent molecular chaperone HSP82 (C4YTQ8 whole entry): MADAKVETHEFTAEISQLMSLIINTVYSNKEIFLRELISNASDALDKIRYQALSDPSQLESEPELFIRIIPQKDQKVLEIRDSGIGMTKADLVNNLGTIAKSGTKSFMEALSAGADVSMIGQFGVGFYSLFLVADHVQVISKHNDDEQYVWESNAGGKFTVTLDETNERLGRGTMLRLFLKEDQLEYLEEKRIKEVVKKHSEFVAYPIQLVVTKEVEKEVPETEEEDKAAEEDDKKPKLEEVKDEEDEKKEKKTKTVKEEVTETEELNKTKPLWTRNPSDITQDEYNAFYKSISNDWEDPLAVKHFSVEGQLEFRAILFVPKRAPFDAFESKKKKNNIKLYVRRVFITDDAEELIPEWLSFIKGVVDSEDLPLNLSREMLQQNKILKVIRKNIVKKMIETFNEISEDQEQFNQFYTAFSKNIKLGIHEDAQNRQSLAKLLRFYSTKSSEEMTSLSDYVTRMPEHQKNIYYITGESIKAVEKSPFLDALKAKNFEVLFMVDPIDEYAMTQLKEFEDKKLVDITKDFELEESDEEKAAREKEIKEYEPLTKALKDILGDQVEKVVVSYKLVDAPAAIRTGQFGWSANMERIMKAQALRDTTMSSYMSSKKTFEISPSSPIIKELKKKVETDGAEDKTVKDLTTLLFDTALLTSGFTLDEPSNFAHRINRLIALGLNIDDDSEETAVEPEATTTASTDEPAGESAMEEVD
Sequence of Cytochrome P450 2D6 (P10635 whole entry): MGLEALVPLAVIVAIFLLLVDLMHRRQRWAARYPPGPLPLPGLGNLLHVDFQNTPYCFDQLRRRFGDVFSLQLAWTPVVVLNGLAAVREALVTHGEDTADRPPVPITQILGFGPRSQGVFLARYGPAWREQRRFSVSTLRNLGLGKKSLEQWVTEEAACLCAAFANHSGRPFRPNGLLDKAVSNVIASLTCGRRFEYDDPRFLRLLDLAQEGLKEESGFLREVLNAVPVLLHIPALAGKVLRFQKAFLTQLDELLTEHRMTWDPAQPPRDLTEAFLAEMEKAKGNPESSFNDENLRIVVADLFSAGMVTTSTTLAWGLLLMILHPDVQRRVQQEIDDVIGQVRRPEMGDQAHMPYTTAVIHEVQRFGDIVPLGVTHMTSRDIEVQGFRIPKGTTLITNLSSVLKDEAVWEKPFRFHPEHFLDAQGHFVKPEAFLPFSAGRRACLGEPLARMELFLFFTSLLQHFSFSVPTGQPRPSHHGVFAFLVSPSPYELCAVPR
Sequence of Phospholipase A2 (P04054 whole entry): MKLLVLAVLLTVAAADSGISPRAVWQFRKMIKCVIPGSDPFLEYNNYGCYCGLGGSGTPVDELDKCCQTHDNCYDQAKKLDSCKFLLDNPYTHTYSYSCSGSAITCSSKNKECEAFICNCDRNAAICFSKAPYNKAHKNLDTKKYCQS

With Nc1ccc(S(=O)(=O)NCCS(=O)(=O)O)cc1 the AC50 (Cytochrome P450 2D6) was “inconclusive”.

In the case of O=C(CCSc1ccccc1)NCC1CCCO1 (stereo unspecified), the AC50 (Escherichia coli [1]) is reported as 30.4 µM (active).

In the case of Oc1c(C(c2ccc(Cl)cc2)N2CCCC2)cc(Cl)c2cccnc12 (stereo unspecified), the EC50 [2] is reported as 15 µM (active), the EC50 [3] is reported as 1.34 µM (active) and the EC50 [4] is reported as 0.135 µM (active). For the same compound, the EC50 [5] was > 180 µM (inactive), the EC50 (Streptococcus) was 1.41 µM (active) and the AC50 [6] was 2.02 µM (active). For the same compound, the EC50 [7] was 22.5 µM (active).

With CN(C)[C@@H]1C(O)=C(C(N)=O)C(=O)[C@@]2(O)C(O)=C3C(=O)c4c(O)ccc(Cl)c4[C@@](C)(O)C3C[C@@H]12 (stereo partly specified) the IC50 (Cysteine protease ATG4B) was 6.14 µM (active), the IC50 (Phospholipase A2) was 5.75 µM (active) and the IC50 (Protein Tat) was > 100 µM (active). The AC50 (Escherichia coli [1]) was 47 µM (active) and the AC50 (Escherichia coli [8]) was 1.2 µM (active).

In the case of COc1ccc(OC)c(N/C=C2/C(=O)NC(=S)N(Cc3ccccc3)C2=O)c1, the EC50 [9] is reported as > 300 µM (not active), the EC50 [3] is reported as > 150 µM (not active) and the EC50 [10] is reported as > 300 µM (inconclusive). For the same compound, the EC50 (Streptokinase A) was > 150 µM (not active), the EC50 (Streptococcus) was > 150 µM (not active) and the EC50 [11] was 38.3 µM (inactive).

In the case of C=CCc1cccc2cc(C(=O)Nc3ccc(CC(=O)O)cc3)c(=O)oc12, the IC50 [12] is reported as > 20 µM (inactive).

— ChEMBL document CHEMBL1201862, “PubChem BioAssay data set” (2004)
